Where “and” joins values, the source holds several entries; their conditions need not be identical. Equal values may be shown once.
Legend:
[1] = target: T1, recombinant His-HSL (hormone-sensitive lipase) (Rattus norvegicus, UniProt P15304); assay: Assay for potency of inhibition on HSL activity (neutral cholesteryl ester hydrolase activity, cholesteryl [1-14C]oleate), Example 1; type: biochemical; conditions: for % inhibition of HSL: in the presence of DTT (1 mM), inhibitor range 0-2.4 mg/mL (FIG. 1, Table 1); for HSL Activity (DPM) (average): HSL + DTT (1 mM), control without inhibitor 1585.64 DPM
T1 construct: cloning full-length rat HSL cDNA into the SmaI site of pAcHLT-A; His6 (N); made in house; host or cells: Sf21 insect cells (baculovirus, BaculoGold)
T1 sequence (P15304 1-768 isoform P15304-2): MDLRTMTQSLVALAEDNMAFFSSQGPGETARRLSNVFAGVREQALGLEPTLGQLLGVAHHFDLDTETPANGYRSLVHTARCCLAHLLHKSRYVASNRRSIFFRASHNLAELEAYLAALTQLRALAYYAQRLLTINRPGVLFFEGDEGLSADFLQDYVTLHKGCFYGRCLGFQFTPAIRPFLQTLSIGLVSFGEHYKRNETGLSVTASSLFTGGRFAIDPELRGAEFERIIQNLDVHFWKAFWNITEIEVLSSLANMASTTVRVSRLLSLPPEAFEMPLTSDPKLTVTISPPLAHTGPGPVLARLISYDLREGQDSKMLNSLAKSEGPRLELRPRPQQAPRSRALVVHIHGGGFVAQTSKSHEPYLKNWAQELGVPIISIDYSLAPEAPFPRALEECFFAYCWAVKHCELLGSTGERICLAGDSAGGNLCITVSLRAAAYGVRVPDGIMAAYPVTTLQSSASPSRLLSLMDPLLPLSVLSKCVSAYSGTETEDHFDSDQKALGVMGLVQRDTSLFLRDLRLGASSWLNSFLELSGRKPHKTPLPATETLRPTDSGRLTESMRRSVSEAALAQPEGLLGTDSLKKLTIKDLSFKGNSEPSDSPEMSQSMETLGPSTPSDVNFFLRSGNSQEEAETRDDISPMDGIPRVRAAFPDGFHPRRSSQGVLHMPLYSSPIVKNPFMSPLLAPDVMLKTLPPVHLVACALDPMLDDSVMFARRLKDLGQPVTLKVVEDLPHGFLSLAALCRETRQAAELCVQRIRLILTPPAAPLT
Experimental: Production of Recombinant HSL: Recombinant His-HSL was generated by cloning full-length rat HSL cDNA into the SmaI site of pAcHLT-A containing a His6 tag. pAcHLT-A-HSL (5 μg) was co-transfected into Sf21 cells with 0.5 μg of BaculoGold™ DNA using the transfection kit from the manufacturer. The titer of the recombinant virus was determined using an end point dilution assay, and the virus was re-amplified to a final titer of 1.5×10^7 pfu/ml. To produce recombinant proteins, Sf21 cells were grown in 150 mm Petri dishes and each 2×10^7 cells were infected with 100 μl of the high titer recombinant virus; cells were harvested three days after infection. After harvesting and cell extraction, His-HSL was purified on a Ni-agarose column.
Preparation of Substrate for Neutral Cholesteryl Ester Hydrolase Activity Assay: HSL activity was determined as neutral cholesteryl ester hydrolase activity using a cholesteryl[1-14C]oleate emulsion for measurement of cellular activity, as described previously. Substrate for the cholesteryl ester assay was prepared by adding 1.25 μCi cholesteryl [1-14C]oleate (purified by thin-layer chromatography), 0.043 mmol phosphatidylcholine, and 0.011 mmol cholesteryl oleate into 2.5 mL of 100 mM potassium phosphate buffer (pH 7.0) containing 5 mM sodium taurocholate. The substrate solution was vortexed and then sonicated for 3 hours with a Branson Sonifier/Cell Disruptor model W-350 on an output setting of 5.0 (50%). The substrate was centrifuged at 3000 rpm for 15 min to remove metallic fragments released by the probe and stored under nitrogen at 4° C. for up to one week.
Preparation of Inhibitor Stock Solution: Inhibitors (fraction # O-4355, O-4350, O-4361, O-4456, O-4457) were obtained from olives, olive oil, roots, bark and leaves from olea europeae species as previously described (Paiva-Martins et al., J. Agric. Food Chem., 49:4214-4219, 2001) and dissolved in 200 μL DMSO with 800 μL distilled water at a concentration of 10 mg/ml. This was regarded as stock solution. 0-60 μL of the stock solution were added to the HSL assay to achieve a final concentration of 0-2.4 mg/ml of the inhibitors. The same volume of DMSO without inhibitors was performed as a control.
Assay for Potency of Inhibition on HSL Activity by the Inhibitors: Aliquots of recombinant HSL protein and various concentrations of inhibitors (0-2.4 mg/mL final concentration) were mixed and the volume adjusted to 100 μL and mixed with 140 μL 0.05% bovine serum albumin in 100 mM potassium phosphate, pH 7.0. After the addition of 10 μL of substrate (100 μM final concentration), the assay was carried out at 37° C. for 60 min. The reaction was stopped by the addition of chloroform:methanol:heptane (250:230:180). After the addition of borate/carbonate buffer (0.1 M, pH, 10.5), the tubes were vortexed and centrifuged, and aliquots of the upper phase were taken for liquid scintillation counting in a Beckman scintillation counter.

COX-2 = target: T2, COX-2 (Homo sapiens, UniProt P35354); conditions: Smith et al., Organic Letters, 7:5075-5078, 2005; cited from earlier work
T2 sequence (P35354 18-604): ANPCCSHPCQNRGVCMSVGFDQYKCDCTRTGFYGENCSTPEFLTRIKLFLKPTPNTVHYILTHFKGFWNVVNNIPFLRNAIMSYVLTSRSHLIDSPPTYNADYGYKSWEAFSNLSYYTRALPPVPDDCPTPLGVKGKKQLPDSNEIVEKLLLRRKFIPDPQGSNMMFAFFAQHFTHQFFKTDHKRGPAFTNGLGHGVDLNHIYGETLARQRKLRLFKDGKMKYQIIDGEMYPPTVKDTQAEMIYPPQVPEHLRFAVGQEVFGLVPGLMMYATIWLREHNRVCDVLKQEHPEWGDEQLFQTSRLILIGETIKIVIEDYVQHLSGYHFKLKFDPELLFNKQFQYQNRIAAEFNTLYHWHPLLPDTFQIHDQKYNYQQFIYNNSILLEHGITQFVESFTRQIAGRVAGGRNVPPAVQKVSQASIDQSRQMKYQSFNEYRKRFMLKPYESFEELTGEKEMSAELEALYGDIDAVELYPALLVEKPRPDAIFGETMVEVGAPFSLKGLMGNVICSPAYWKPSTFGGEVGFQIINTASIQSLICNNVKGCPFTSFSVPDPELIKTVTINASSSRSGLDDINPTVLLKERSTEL

SMILES	% inhibition of HSL [1]	HSL Activity (DPM) (average) ([1]; inhibitor 0.4 mg/mL)	HSL Activity (DPM) (average) ([1]; inhibitor 0.8 mg/mL)	HSL Activity (DPM) (average) ([1]; inhibitor 1.2 mg/mL)	HSL Activity (DPM) (average) ([1]; inhibitor 1.6 mg/mL)	HSL Activity (DPM) (average) ([1]; inhibitor 2.0 mg/mL)	HSL Activity (DPM) (average) ([1]; inhibitor 2.4 mg/mL)	anti-COX-2 activity (COX-2)
C/C=C(/C=O)[C@@H](CC=O)CC(=O)OCCc1ccc(O)cc1 [O-4456, para-hydroxyphenylelenolic acid dialdehyde]	98% and 98.42%	123.5	52.6035	51.145	88.595	49.56	25.035	having anti-COX-2 activity
CC=C(C=O)C(CC=O)CC(=O)OCCc1ccc(O)c(O)c1 (stereo not drawn) [O-4457, 3,4-dihydroxyphenylelenolic acid dialdehyde]	97% and 97.95%	214.85	87.105	48.025	49.885	39.545	32.495	–
